Laboratory results taken from patent US20220144775A1, “HYDRAZIDE COMPOUND AND KINASE INHIBITOR” (NISSAN CHEMICAL CORPORATION, priority 2019, published 2022).

What was measured:
MDCK cells = assay: Observation of Cyst form with confocal fluorescence microscope; format: cell-based, canine; details: 10 μM; β catenin, Phalloidin, DAPI staining; FIG. 1
Protocol: As for the respective Matrix GFRs containing Cyst cultured in a medium added with DMSO or A-004A (10 μM) and obtained in Experimental Example 3, the cells were washed with PBS (1 mL/well), 4% paraformaldehyde/PBS (manufactured by FUJIFILM Wako Pure Chemical Corporation) was added (1 mL/well) and fixed at room temperature for 20 min. Thereafter, the supernatant was removed, staining buffer [0.2% Triton X-100 (manufactured by Sigma-Aldrich), 0.05% Tween 20 (manufactured by Sigma-Aldrich)-containing PBS] were added at 1 mL/well, stood for 30 min and removed. Penetration buffer (0.5% Triton X-100 (manufactured by Sigma-Aldrich)/PBS) was added at 1 mL/well and incubated at room temperature for 30 min. The supernatant was removed, washed 3 times every 5 min with staining buffer, blocking buffer (1% bovine serum albumin (BSA manufactured by Sigma-Aldrich)/staining buffer) was added at 0.5 mL/well and incubated for 30 min. The supernatant was removed, an anti-β catenin antibody (manufactured by BD Bioscience) diluted 100-fold with blocking buffer was added at 250 μL/well, and the cells were incubated at room temperature for 60 min. […]

[1] = system: Colitis model administered with dextran sulfate sodium (DSS); assay: Inflammation suppressive effect on DSS colitis model mouse; format: in vivo; details: C57BL/6NCrl mice; 2.5 w/v % DSS drinking water; 50 mg/kg intraperitoneally every 24 hr; day 8; FIG. 3
Protocol: Colitis model administered with dextran sulfate sodium (DSS) (manufactured by FUJIFILM Wako Pure Chemical Corporation) was produced as described below. The length of the large intestine is used as a morphological parameter in the evaluation of colitis, and the large intestine shortens according to the degree of inflammation. Therefore, the anti-inflammatory effect of the compound was evaluated by comparing the length of the large intestine. As the Buffer, a 0.5 w/v % methylcellulose aqueous solution (manufactured by FUJIFILM Wako Pure Chemical Corporation) added with Dimethyl sulfoxide (manufactured by FUJIFILM Wako Pure Chemical Corporation) at 1 v/v % was used. It was prepared by suspending compound A-004A in the above-mentioned Buffer at 5 mg/mL. As the mouse, male C57BL/6NCrl, 6-week-old, was purchased from CHARLES RIVER LABORATORIES JAPAN, INC. As drinking water, distilled water or a 2.5 w/v % DSS aqueous solution was freely given. The DSS drinking start date was set as day 1, and the water was given until day 8. Compound A-004A was intraperitoneally administered at 50 mg/kg every 24 hr from day 1. As a negative control, Buffer alone was administered similarly. On day 8, the mouse was dissected, the large intestine was isolated and the length of the large intestine was measured. Conducted in 3-4 cases in each group.

YAP = YAP phosphorylation inhibitory action in SKOV3 (HTRF); format: cell-based, human; details: 10 μM, 1 hr, non-treatment 100%
Protocol: Human ovarian cancer cell line SKOV3 (manufactured by DS Pharma Biomedical Co., Ltd.) was precultured using a 15% FBS-containing McCoy's 5a medium (manufactured by Sigma-Aldrich) (single layer culture). The above-mentioned cells in the logarithmic growth phase were washed with PBS. A 0.25% (w/v) trypsin-1 mmol/L ethylenediaminetetraacetic acid (EDTA) solution (manufactured by FUJIFILM Wako Pure Chemical Corporation) was added and the adherent cells were incubated at 37° C. for 3 min and detached. The above-mentioned medium was added, and the cells were centrifuged and resuspended in the same medium.
According to the method of patent document 1 (WO 2014/017513), a composition of 10% FBS-containing DMEM medium (Phenol-red free, manufactured by FUJIFILM Wako Pure Chemical Corporation) containing 0.015% (w/v) deacylated gellan gum (KELCOGEL CG-LA, manufactured by SANSHO Co., Ltd.) was prepared using FCeM-series Preparation Kit (manufactured by FUJIFILM Wako Pure Chemical Corporation). Then, various cells prepared above were suspended in the above-mentioned medium composition (3D culture conditions) added with deacylated gellan gum or a medium without the addition (2D culture conditions), and seeded on a 50 μL/well (manufactured by Corning Incorporated, a 96 well flat bottom plate, #3585, 2D culture conditions) or 25 μL/well (manufactured by Corning Incorporated, 96 well low adhesion flat bottom plate, #3474) at 100000 cells/well. The plate was allowed to stand at 37° C. in a 5% CO2 incubator, and the compound of the present invention diluted with the medium at 2 or 6 times the final concentration, DMSO, or the medium alone was added to the plate 3 hr after the seeding at 50 μL/well (2D culture conditions) or 5 μL/well (3D culture conditions) to make the final concentration of each compound 10 μM. After culture at 37° C. in a 5% CO2 incubator for 1 hr, the supernatant was aspirated, supplemented Lysis buffer (1-fold concentration, manufactured by Cisbio, YAP-total kit or YAP phospho-S27 kit) (50 μL) was added under 2D culture conditions, and supplemented Lysys buffer (4-fold concentration) (10 μL) was added to the culture supernatant under 3D conditions, and the mixture was stirred by a plate shaker for 30 min. Thereafter, the plate was centrifuged, 16 μL of the supernatant was transferred to a 384-well white plate (Corning, #4512), and each antibody solution (pYAP d2 antibody or Total-YAP d2 antibody, and pYAP Cryptate antibody or Total-YAP Cryptate antibody) included in the kit was added at 4 μL/well in total, and the mixture was allowed to stand at room temperature overnight. As a blank control, pYAP Cryptate antibody or Total-YAP Cryptate antibody alone was added to cells free of stimulation with compound and the mixture was treated in the same manner. The next day, the wavelengths at 665 nm and 615′ nm were measured in the HTRF mode of EnVision (manufactured by PerkinElmer).
The obtained signal was calculated as follows. Ratio=signal (665 nm)/signal (615 nm)×10000, ΔR=Signal(Ratio)−Background fluorescence, and the relative phosphorylated YAP amount or total YAP amount for each compound when ΔR of the compound non-addition group (non-treatment) is 100% is shown in Tables 7 and 8 (2D culture), and Tables 9 and 10 (3D culture). From the results, it was shown that the compound of the present zo invention has a YAP phosphorylation inhibitory action under both 2D and 3D culture conditions.

LATS2 = target: T1, LATS2 (Homo sapiens, UniProt Q9NRM7); assay: Kinase inhibitory activity against LATS2 (ADP quantification); format: biochemical; details: final concentration 1000 nM; ATP 400 μM; read-out: kinase inhibitory rate
T1 construct: purchased Carna Biosciences
T1 sequence (Q9NRM7 1-1088): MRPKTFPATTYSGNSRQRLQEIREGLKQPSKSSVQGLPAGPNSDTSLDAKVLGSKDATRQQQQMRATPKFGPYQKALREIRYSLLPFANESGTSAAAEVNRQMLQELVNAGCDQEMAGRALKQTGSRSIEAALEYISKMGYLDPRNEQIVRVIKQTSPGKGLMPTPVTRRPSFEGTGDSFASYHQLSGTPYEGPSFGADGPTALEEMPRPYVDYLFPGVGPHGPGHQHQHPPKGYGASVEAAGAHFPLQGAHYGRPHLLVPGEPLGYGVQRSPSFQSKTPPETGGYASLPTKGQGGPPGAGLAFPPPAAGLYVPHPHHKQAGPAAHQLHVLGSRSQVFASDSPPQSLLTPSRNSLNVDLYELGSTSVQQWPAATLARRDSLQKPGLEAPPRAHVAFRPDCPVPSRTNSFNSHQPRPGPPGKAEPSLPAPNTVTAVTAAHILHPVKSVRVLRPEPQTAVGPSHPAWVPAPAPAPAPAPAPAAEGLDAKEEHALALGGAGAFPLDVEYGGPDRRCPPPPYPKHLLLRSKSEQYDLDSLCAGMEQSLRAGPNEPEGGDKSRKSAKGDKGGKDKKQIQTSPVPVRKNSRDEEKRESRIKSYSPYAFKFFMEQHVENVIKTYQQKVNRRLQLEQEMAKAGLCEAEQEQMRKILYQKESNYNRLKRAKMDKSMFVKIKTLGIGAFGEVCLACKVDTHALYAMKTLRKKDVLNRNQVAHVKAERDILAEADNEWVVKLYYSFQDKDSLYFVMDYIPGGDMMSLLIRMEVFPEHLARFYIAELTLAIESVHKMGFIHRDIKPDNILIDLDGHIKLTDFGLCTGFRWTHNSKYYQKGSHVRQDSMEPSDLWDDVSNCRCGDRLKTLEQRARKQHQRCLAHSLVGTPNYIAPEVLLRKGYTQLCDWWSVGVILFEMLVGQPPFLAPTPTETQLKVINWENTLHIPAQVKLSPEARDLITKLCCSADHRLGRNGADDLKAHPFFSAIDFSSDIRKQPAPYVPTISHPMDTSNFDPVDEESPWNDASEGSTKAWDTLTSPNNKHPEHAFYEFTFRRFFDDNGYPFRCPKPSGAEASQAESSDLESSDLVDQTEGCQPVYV
Protocol: (§1) Evaluation of the inhibitory activity (calculation of kinase inhibitory rate) of the compound of the present invention against LATS1 and LATS2 (manufactured by Carna Biosciences) was performed. The activity was measured using the Kinase Assay method described below. The test concentration of the compound of the present invention was set such that the final concentration was 100 nM or 1000 nM.
(§2) As the analysis method of the data, the mean signal of the control well containing reaction components other than the compound of the present invention was set to 0% inhibition, the mean signal without enzyme addition was set to 100% inhibition, and the inhibition rate was calculated from the mean signal of 2 wells of each compound.
(§3) 2 μL of a compound of the present invention solution at 2.5-fold concentration, 1 μL of substrate at 5-fold concentration (SGKtide: NH2-CKKRNRRLSVA-COOH, manufactured by SignalChem), ATP (manufactured by Sigma-Aldrich), MgCl2 (manufactured by FUJIFILM Wako Pure Chemical Corporation) solution (final concentration 10 μM, 400 μM and 5 mM, respectively), and 2 μL of kinase solution at 2.5-fold concentration (final concentration of LATS1 or LATS2 5 μg/mL), each prepared with assay buffer (20 mM HEPES, 0.01% Triton X-100, 2 mM DTT, 50 μg/mL BSA, pH 7.5), were mixed in the wells of a polypropylene 384-well plate (manufactured by Greiner Bio-One, #784900) and reacted at room temperature for 5 hr. To the solution was added 5 μL detection solution [Fluorospark (registered trade mark) Kinase/ADP Multi-Assay Kit; manufactured by FUJIFILM Wako Pure Chemical Corporation], and the mixture was reacted at room temperature for 30 min. Successively, 5 μL of a reaction quenching liquid [Fluorospark (registered trade mark) Kinase/ADP Multi-Assay Kit; manufactured by FUJIFILM Wako Pure Chemical Corporation] was added to discontinue the reaction. Thereafter, the ADP concentration of the reaction solution was quantified by EnSpire (manufactured by PerkinElmer) to detect the kinase reaction.

LATS1 = target: T2, LATS1 (Homo sapiens, UniProt O95835); assay: Kinase inhibitory activity against LATS1 (ADP quantification); format: biochemical; details: final concentration 1000 nM; ATP 400 μM; read-out: kinase inhibitory rate
T2 construct: purchased Carna Biosciences
T2 sequence (O95835 1-1130): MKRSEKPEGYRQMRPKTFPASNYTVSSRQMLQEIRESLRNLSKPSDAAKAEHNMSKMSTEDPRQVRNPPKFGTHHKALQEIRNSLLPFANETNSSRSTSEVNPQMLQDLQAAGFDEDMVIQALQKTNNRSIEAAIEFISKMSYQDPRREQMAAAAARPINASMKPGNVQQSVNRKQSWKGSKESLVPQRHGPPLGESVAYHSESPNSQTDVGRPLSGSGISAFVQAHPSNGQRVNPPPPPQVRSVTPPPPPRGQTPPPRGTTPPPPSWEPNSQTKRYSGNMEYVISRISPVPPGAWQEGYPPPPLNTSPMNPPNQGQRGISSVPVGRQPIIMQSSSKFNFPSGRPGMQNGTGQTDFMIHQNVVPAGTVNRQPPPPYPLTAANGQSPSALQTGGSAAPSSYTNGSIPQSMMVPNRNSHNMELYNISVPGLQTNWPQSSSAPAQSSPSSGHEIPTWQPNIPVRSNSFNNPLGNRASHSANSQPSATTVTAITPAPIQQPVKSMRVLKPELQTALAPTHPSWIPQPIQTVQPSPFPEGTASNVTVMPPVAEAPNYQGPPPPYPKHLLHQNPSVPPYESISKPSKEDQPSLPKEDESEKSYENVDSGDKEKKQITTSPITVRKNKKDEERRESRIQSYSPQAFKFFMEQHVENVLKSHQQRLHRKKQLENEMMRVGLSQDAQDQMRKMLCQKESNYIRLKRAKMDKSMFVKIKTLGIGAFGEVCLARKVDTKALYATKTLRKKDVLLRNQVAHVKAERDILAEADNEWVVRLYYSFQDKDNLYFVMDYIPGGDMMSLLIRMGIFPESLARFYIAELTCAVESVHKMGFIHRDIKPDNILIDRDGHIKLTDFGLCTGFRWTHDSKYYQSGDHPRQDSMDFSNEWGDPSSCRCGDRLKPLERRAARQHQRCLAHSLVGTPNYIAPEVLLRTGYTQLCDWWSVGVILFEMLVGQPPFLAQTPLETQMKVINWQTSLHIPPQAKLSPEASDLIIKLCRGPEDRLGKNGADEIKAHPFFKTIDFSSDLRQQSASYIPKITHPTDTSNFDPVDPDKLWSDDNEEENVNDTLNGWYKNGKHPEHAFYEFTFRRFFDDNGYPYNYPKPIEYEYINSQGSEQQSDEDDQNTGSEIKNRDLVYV
Protocol: as §1, §2, §3

| SMILES | Cyst form (MDCK cells) | length of the large intestine [1] | phosphorylated YAP amount (%) (YAP; 2D culture conditions) | total YAP amount (%) (YAP; 2D culture conditions) | phosphorylated YAP amount (%) (YAP; 3D culture conditions) | total YAP amount (%) (YAP; 3D culture conditions) | inhibition at 1 µM (LATS2) [%] | inhibition at 1 µM (LATS1) [%] |
| --- | --- | --- | --- | --- | --- | --- | --- | --- |
| CC/C(=N\NC(=O)C(C)Nc1cccnc1)c1ccc(O)c(C)c1O (single isomer, unassigned) [A-004A, (E)-N′-(1-(2,4-dihydroxy-3-methylphenyl)propylidene)-2-(pyridin-3-ylamino)propanehydrazide] | Cyst with a normal form was formed | shortening of the large intestine was suppressed more | 14 | 97 | 11 | 112 |  |  |
| CC/C(=N\NC(=O)C(C)Oc1cccnc1)c1ccc(O)c(C)c1O (centres unmarked) [C-001, (E)-N′-(1-(2,4-dihydroxy-3-methylphenyl)propylidene)-2-(pyridin-3-yloxy)propanehydrazide] |  |  |  |  |  |  | ≥ 40 | ≥ 40 |
